Assay results: US20080138462A1, “Lactobacillus buchneri strain LN5665 and its use to improve aerobic stability of silage” (Pioneer Hi-Bred International, Inc., priority 2006, published 2008)

Experiment: Aerobic stability of grass silage (PVC silos, method of Honig)
Set-up: species or system ryegrass
Procedure: Second cut ryegrass was harvested at PLNC. The grass was determined to have an approximate dry matter of 35%.
Inoculation: Individual strains were supplied as fresh grown overnight culture. Cultures were adjusted to a standard concentration of 5.0×10^7 CFU/mL and applied using a syringe at a rate of 2.2 mL/kg of forage. The application rate for all strains was 1.1×10^5 CFU/g forage. Propionic acid (88%) was applied at a rate of 4.4 mL/kg fresh forage.
PVC Silos: PVC silos were filled at a packing density of 0.288 kg DM/silo (100 kg DM/m^3); approximately 0.82-0.95 kg/silo. Silos were air infused for 24 hours on days 28 and 42, and opened after 50-60 days of ensiling.
Aerobic Stability: The method of Honig (Proc. Of the Eurobac. Conf., P. Lingvall and S. Lindgren (ed.) (12-16 Aug. 1986) Swed. Univ. of Agric. Sci. Grass and Forage Report No. 3-1990. Pp. 76-81. Uppsala, Sweden.) was used for measuring aerobic stability (see Table 1). ROT is defined as the time, in hours, for the silage to heat 1.7° C. after exposure to air. Cumm_DD is the integral value of the area between the time ROT is attained and the end of the experiment. Aerobic dry matter loss (% dry matter) was determined relating the increase in temperature and the time to energy losses occurring in the silage.

SMILES: CCC(=O)O [Propionic Acid, Propionic acid]
- Aerobic deterioration compared with control grass silages: significantly less aerobic deterioration
